In general, IC50 refers to the midpoint of a concentration-inhibition curve. The term EC50 denotes the concentration at which the effect is half-maximal.

Counter-ions that a name gives are not always drawn. Like-named read-outs stand apart in the source and are kept apart here. Where only a bound is given, the exact number is not on record here.

The target of assay [1] is T1, Human DYRK1B (Homo sapiens, UniProt Q9Y463).
T1 construct: purchased Invitrogen PR8350B (former PV4649)
Put plainly: DYRK1B Kinase TR-FRET (IMAP-Tb) Assay. Type of assay: biochemical. The text has this: DYRK1B Kinase TR-FRET (IMAP-Tb) Assay Assay Principle The kinase TR-FRET (IMAP-Tb) assay uses a fluorescence labeled substrate peptide in the kinase reaction. Upon phosphorylation by the kinase, phosphopeptide is produced, which will be detected by the binding solution provided in IMAP TR-FRET binding kit. After the completion of the kinase reaction, the reaction will be stopped by adding the binding solution containing terbium tracer. This tracer is immobilized on the surface of the IMAP beads, which also contain metal ions on the beads that bind to the phospho-groups of the products. Thus the phosphorylated product of the reaction can enter into close proximity to the tracer, producing resonance energy transfer. Due to the long lifetime of terbium (Tb) fluorescence the detection can be run in time resolved mode, which virtually eliminates fluorescence interference from assay components or compounds. The TR-FRET signal measurement from this assay, given as an IC50 measurement, is a measure of a test compound's ability to interfere with the phosphorylation of the peptide substrate, that is it inhibits the phosphorylation of the substrate peptide by DYRK1B, and is thus a measure of the test compound's ability to inhibit the activity of DYRK1B. IC50 is the amount of test compound that inhibits 50% of the activity of DYRK1B in this assay. In some cases where the IC50 was not determined, then the % inhibition at 10 μM test compound concentration may be reported. Materials and Reagents • 1. Human DYRK1B: from Invitrogen. Part #PR8350B (former PV4649) • 2. Substrate Peptide: in-house synthesized: RRRFRPASPLRGPPK • 3. IMAP TR-FRET IPP Explorer Kit: from Molecular Devices. Part #R8157 • 4. Kinase Assay Buffer (KAB): 10 mM HEPES pH 7.0, 50 mM NaCl, 5 mM MgCl2, 1 mM DTT, 1 mM NaVO4, 200 μg/mL BSA (0.02%) • 5. Assay Plate: Remp polypropylene clear 384-well microplate. Cat#23490-102 • 6. Detection Plate: Costa black 384-well microplate. Cat #3710 Assay Procedure: this Assay was Performed as Follows: • 1. Transfer 1.5 μL of 20× compound solution to each well of an assay plate. • 2. Add to each well 22.5 μL of KAB Buffer. • 3. Add to each well 3 μL of the solution of DYRK1B and ATP. […] Add to each well 3 μL of the substrate peptide. The assay concentration is 1.0 μM • 5. Incubate the assay plates at 37° C. for 60 minutes. • 6. Add 18 μL of Detection Solution (1:800 diluted Progress bead stock, 1:400 diluted Tb stock, 80% Buffer A, and 20% Buffer B) into each well of detection plates. • 7. Transfer 6 μL of assay solution from the assay plate to the detection plate. • 8. Shake detection plates for 30 minutes. • 9. Read plates in Envision with wavelength set at excitation 340 nm for Tb, emission 490 nm, and […] 520 nm. • 10. Calculation: TR-FRET Signal=(Reading at […]/Reading at 490 nM)×2000000
In general terms: Time-resolved FRET reads energy transfer from a long-lived donor to a nearby acceptor.

In assay [2] the target is T2, Human DYRK1A (Homo sapiens, UniProt Q13627).
T2 construct: purchased Invitrogen PV3997
Put plainly: DYRK1A Kinase TR-FRET (IMAP-Tb) Assay. It is filed as biochemical. The note with it: TR-FRET (IMAP-Tb); ATP 70 μM; 37° C. for 60 minutes; averages of multiple runs; read-out: Enzyme IC50 (μM) DYRK1A. The text has this: DYRK1A Kinase TR-FRET (IMAP-Tb) Assay
The kinase TR-FRET (IMAP-Tb) assay uses a fluorescence labeled substrate peptide in the kinase reaction. Upon phosphorylation by the kinase, phosphopeptide is produced, which will be detected by the binding solution provided in IMAP TR-FRET binding kit. After the completion of the kinase reaction, the reaction will be stopped by adding the binding solution containing terbium tracer. This tracer is immobilized on the surface of the IMAP beads, which also contain metal ions on the beads that bind to the phospho-groups of the products. Thus the phosphorylated product of the reaction can enter into close proximity to the tracer, producing resonance energy transfer. Due to the long lifetime of terbium (Tb) fluorescence the detection can be run in time resolved mode, which virtually eliminates fluorescence interference from assay components or compounds.
The TR-FRET signal measurement from this assay, given as an IC50 measurement, is a measure of a test compound's ability to interfere with the phosphorylation of the peptide substrate, that is it inhibits the phosphorylation of the substrate peptide by DYRK1A, and is thus a measure of the test compound's ability to inhibit the activity of DYRK1A.
Materials and Reagents • 1. Human DYRK1A: from Invitrogen. Part #PV3997 • 2. Substrate Peptide: […] • 3. IMAP TR-FRET IPP Explorer Kit: from Molecular Devices. Part #R8157 • 4. Kinase Assay Buffer (KAB): 10 mM HEPES pH 7.0, 50 mM NaCl, 5 mM MgCl2, 1 mM DTT, 1 mM NaVO4, 200 ug/mL BSA (0.02%) • 5. Assay Plate: Remp polypropylene clear 384-well microplate. […] Detection Plate: Costa black 384-well microplate.
Assay Procedure: this Assay was Performed as Follows: • 1. Transfer 1.5 μL of 20× compound solution to each well of an assay plate. • 2. Add to each well 22.5 μL of KAB Buffer. • 3. Add to each well 3 μL of the solution of DYRK1A and ATP. […] Add to each well 3 μL of the substrate peptide. The assay concentration is 1.0 μM • 5. Incubate the assay plates at 37° C. for 60 minutes. • 6. Add 18 μL of Detection Solution (1:800 diluted Progress bead stock, 1:400 diluted Tb stock, 80% Buffer A, and 20% Buffer B) into each well of detection plates. • 7. Transfer 6 μL of assay solution from the assay plate to the detection plate. • 8. Shake detection plates for 30 minutes. • 9. Read plates in Envision with wavelength set at excitation 340 nm for Tb, emission 490 nm, and […] 520 nm. • 10.

For assay [3], the system named is SW620 human colon cancer cells. Put plainly: SW620 Cell Viability Assay. Type of assay: cell-based. The note with it: SW-620, 96 h, CellTiter-Glo Luminescent Cell Viability Assay, 4 days incubation, read-out: Cellular EC50 (μM) SW620. As for the experimental part:
SW620 Cell Viability Assay
1. Cell Plate Preparation: SW620 human colon cancer cells (known to express DYRK1B), obtained from ATCC, were seeded into 96-well plates at 3×10^3 cells/well in 50 μL of media. • Harvested the required number of cells (counts & viability determined by Guava Viacount). • Centrifuge cells to pellet and removed supernant. • Resuspended in growth media (50 μL/well) & pipetted thoroughly to break up clumps. • Setup for ˜100 wells/plate, therefore, VT=5 mL/plate @ […].
1A. Some cells (S—) were allowed to attach for 24 hrs, serum starved for 48 hrs, and then followed with test compound treatments.
Test compound solution were prepared in regular corresponding media supplemented with serum.
2. Test compound Preparation: Drugs were solubilized in either DMSO or media and prepared at various stock concentrations. • All compounds were incubated at 37° C. for 30 minutes and vortexed. • (5 mM stocks of test compound were prepared for non-soluble test compounds)
3. Test compound Plate Preparation: • The 10 mM test compound stock was diluted to a concentration of 100× the final Cmax concentration. • Then the test compound stock is diluted 50-fold in media and/or second test compound for a final Cmax concentration in the test compound plate. • The Cmax in the test compound plate (2% DMSO) is 2-fold higher than the final Cmax in the cell plate (60 μl, titrations were 1:3).
4. Viability Assay: This assay was performed as follows: • Transfer 50 μL of test compound solution per well from the test compound plate onto the cell plate prepared in Step #1. • Mix the plate with treated cells by pipetting up and down three times with 200 μL multi-channel pipette. • Incubate the cells in 5% CO2 incubator @ 37° C. for 4 days. • Run the CellTiter-Glo™ Luminescent Cell Viability Assay.
The results of this assay, given as EC50 values, indicate the concentration of test compound that inhibits tumor cell proliferation by 50%.
(In general: Cellular ATP, detected with luciferase, serves as a proxy for viable cell number.)

The mark [4] stands for this setting: TR-FRET (IMAP-Tb), ATP 70 μM, 37° C. for 60 minutes, averages of multiple runs, read-out: Enzyme IC50 (μM) DYRK1B.

T1 sequence (Q9Y463 whole entry): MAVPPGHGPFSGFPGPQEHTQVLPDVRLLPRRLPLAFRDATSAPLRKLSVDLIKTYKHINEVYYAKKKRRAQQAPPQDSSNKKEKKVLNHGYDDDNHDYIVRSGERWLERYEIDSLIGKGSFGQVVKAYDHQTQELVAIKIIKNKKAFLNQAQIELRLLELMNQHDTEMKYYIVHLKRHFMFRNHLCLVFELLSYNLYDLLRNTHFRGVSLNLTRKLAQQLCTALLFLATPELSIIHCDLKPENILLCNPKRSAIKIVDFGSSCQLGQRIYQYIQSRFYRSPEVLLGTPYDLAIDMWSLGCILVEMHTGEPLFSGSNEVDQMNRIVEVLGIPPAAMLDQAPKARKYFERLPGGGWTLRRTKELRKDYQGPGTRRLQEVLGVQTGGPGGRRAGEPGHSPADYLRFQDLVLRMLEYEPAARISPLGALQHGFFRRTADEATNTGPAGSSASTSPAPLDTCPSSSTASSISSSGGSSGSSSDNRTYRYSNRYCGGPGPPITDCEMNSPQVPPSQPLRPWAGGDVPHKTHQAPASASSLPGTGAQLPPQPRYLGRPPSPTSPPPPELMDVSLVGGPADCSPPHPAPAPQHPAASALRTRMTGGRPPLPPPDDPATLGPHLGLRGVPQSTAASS

As to `c1cc(NCc2ccsc2)nc(-c2n[nH]c3nc(NCCN4CCOCC4)ncc23)c1` [Example 60, (2-Morpholin-4-yl-ethyl)-(3-{6-[(thiophen-3-ylmethyl)-amino]-pyridin-2-yl}-1H-pyrazolo[3,4-d]pyrimidin-6-yl)-amine], the half-maximal inhibitory concentration (IC50) in assay [1] (setting [4]) came out at 0.234 µM; in assay [2], 0.785 µM. In addition, the EC50 in assay [3] is > 10 µM.

Take `NCCC(Nc1cccc(-c2n[nH]c3nc(N[C@H]4CC[C@H](N)CC4)ncc23)c1)c1ccccc1` (stereo partly shown) [Example 79, N-{3-[3-(3-Amino-1-phenyl-propylamino)-phenyl]-1H-pyrazolo[3,4-d]pyrimidin-6-yl}-cyclohexane-1,4-diamine; hydrochloride]: the IC50 in assay [1] (setting [4]) worked out at 0.601 µM; in assay [2] it was 1.11 µM. Also, the concentration giving a half-maximal response (EC50) in assay [3] is > 10 µM.

Consider `NCC(Nc1nccc(-c2n[nH]c3nc(NCCN4CCOCC4)ncc23)n1)c1ccsc1` (stereo not shown) [Example 82, N1-{4-[6-(2-Morpholin-4-yl-ethylamino)-1H-pyrazolo[3,4-d]pyrimidin-3-yl]-pyrimidin-2-yl}-1-thiophen-3-yl-ethane-1,2-diamine; hydrochloride], for which the results for the IC50 in assay [1] (setting [4]) and in assay [2] were 0.012 µM and 0.005 µM, respectively. In addition, in assay [3], the half-maximal effective concentration (EC50) came out at 0.27 µM.

In the case of `NCC(Nc1nccc(-c2n[nH]c3nc(NCCN4CCOCC4)ncc23)n1)c1cccc(Cl)c1` (stereo not shown) [Example 76, 1-(3-Chloro-phenyl)-N1-{4-[6-(2-morpholin-4-yl-ethylamino)-1H-pyrazolo[3,4-d]pyrimidin-3-yl]-pyrimidin-2-yl}-ethane-1,2-diamine; hydrochloride], the results for the concentration for half-maximal inhibition (IC50) in assay [1] (setting [4]) and in assay [2] were 0.0121 µM and 0.0076 µM, respectively. The EC50 in assay [3] amounted to 0.14 µM.

On to `N[C@H]1CC[C@H](Nc2ncc3c(-c4cccc(NCc5cccs5)c4)n[nH]c3n2)CC1` [Example 53, N-(3-{3-[(Thiophen-2-ylmethyl)-amino]-phenyl}-1H-pyrazolo[3,4-d]pyrimidin-6-yl)-cyclohexane-1,4-diamine], for which the 50% inhibitory concentration (IC50) in assay [1] (setting [4]) was determined as 0.183 µM; in assay [2], 0.405 µM. Moreover, in assay [3], the EC50 was found to be 1.84 µM.

As for `c1cc(-c2n[nH]c3nc(NCCN4CCOCC4)ncc23)nc(NCc2ccsc2)n1` [Example 77, (2-Morpholin-4-yl-ethyl)-(3-{2-[(thiophen-3-ylmethyl)-amino]-pyrimidin-4-yl}-1H-pyrazolo[3,4-d]pyrimidin-6-yl)-amine; hydrochloride], the IC50 in assay [1] (setting [4]) turned out to be 0.04 µM; in assay [2], 0.0129 µM. The EC50 in assay [3] was 5.99 µM.

For the compound `NCC(Nc1nccc(-c2n[nH]c3nc(NCCN4CCOCC4)ncc23)n1)c1ccccc1` (stereo not shown) [Example 83, N1-{4-[6-(2-Morpholin-4-yl-ethylamino)-1H-pyrazolo[3,4-d]pyrimidin-3-yl]-pyrimidin-2-yl}-1-phenyl-ethane-1,2-diamine; hydrochloride], the IC50 in assay [1] was 0.0183 µM. Also, in assay [3], the concentration for a half-maximal effect (EC50) is 0.56 µM.

For the compound `NCCC(Nc1cccc(-c2n[nH]c3nc(NCCN4CCOCC4)ncc23)c1)c1ccccc1` (stereo not shown) [Example 73, N1-{3-[6-(2-Morpholin-4-yl-ethylamino)-1H-pyrazolo[3,4-d]pyrimidin-3-yl]-phenyl}-1-phenyl-propane-1,3-diamine; hydrochloride], the 50% inhibitory concentration (IC50) in assay [1] (setting [4]) stood at 9.59 µM; in assay [2] it was 4.88 µM.

Consider `N[C@H]1CC[C@H](Nc2ncc3c(-c4cccc(NCc5ccsc5)n4)n[nH]c3n2)CC1` [Example 65, N-(3-{6-[(Thiophen-3-ylmethyl)-amino]-pyridin-2-yl}-1H-pyrazolo[3,4-d]pyrimidin-6-yl)-cyclohexane-1,4-diamine; hydrochloride], for which the figures for the IC50 in assay [1] (setting [4]) and in assay [2] were < 0.005 µM and 0.021 µM, respectively.

Take `NCCC(Nc1cccc(-c2n[nH]c3nc(NCCN4CCOCC4)ncc23)n1)c1ccccc1` (stereo not shown) [Example 75, N1-{6-[6-(2-Morpholin-4-yl-ethylamino)-1H-pyrazolo[3,4-d]pyrimidin-3-yl]-pyridin-2-yl}-1-phenyl-propane-1,3-diamine; hydrochloride]: the IC50 in assay [1] (setting [4]) amounted to 2.73 µM; in assay [2], 2.58 µM.

Regarding `c1cc(NCc2ccsc2)cc(-c2n[nH]c3nc(NCCN4CCOCC4)ncc23)c1` [Example 51, (2-Morpholin-4-yl-ethyl)-(3-{3-[(thiophen-3-ylmethyl)-amino]-phenyl}-1H-pyrazolo[3,4-d]pyrimidin-6-yl)-amine], the 50% inhibitory concentration (IC50) is > 10 µM in assay [1] (setting [4]) and 9.02 µM in assay [2].
